“Also recorded” adds a separate entry of the source.
What was measured:
KOPR = settings: 2.5 mg/kg; s.c. (Xia et al., 2007); cited from earlier work
μ opioid receptor (MOPR) [1] = target: T1, μ opioid receptor (MOPR) (Mus musculus, UniProt P42866); assay: DAMGO concentration-dependent [35S]GTPγS binding in caudate-putamen and nucleus accumbens membrane preparations; type: biochemical, mice
T1 construct: The caudate-putamen and nucleus accumbens were microdissected and the tissue was homogenized; from tissue; host or cells: mouse brain: caudate-putamen and nucleus accumbens membrane preparations
Protocol: (§1) MOPR activity was assayed by using [^35S]GTPγS binding on membrane preparations using a modification of the previously described method^23. The mice were sacrificed by cervical dislocation and the brain was dissected rapidly. The caudate-putamen and nucleus accumbens were microdissected and the tissue was homogenized using teflon pistol in Eppendorf tubes (10 strokes) in 300 μl of homogenization buffer containing 25 mM Tris/pH7.4, 5 mM EDTA and 0.1 mM PMSF and kept on ice. Homogenate was diluted to 2.5 ml using the homogenization buffer and centrifuged at ˜350,000 g for 30 min. After washing 3 times with 50 mM Tris-HCl/pH7.4, the pellets were re-suspended in 50 mM Tris-HCl/pH7.4 containing 0.32 M sucrose, passed through a 26.5 G needle for 3 times, frozen in dry ice/ethanol and stored in −80° C. until use. […] Bound and free [^35S]GTPγS were separated by filtration with GF/B filters under reduced pressure. Radioactivity on filters was determined by liquid scintillation counting. Nonspecific binding was subtracted from total stimulated and basal binding. […] MOPR activity was reported as % of baseline (unstimulated) activity: [Disintegrations per minute (DPM) with agonist stimulated binding−DPM of nonspecific binding)/(DPM basal (without agonist)−DPM nonspecific)×100. Protein content of membranes was determined by the BCA method of^24 with bovine serum albumin as the standard.

rats = settings: 0.5 mg/kg MPH, rats (Paine et al., 2007); cited from earlier work
[2] = tested on: frontal cortical dopamine levels; settings: cited from earlier work
μ opioid receptor (MOPR) [3] = target: T1, μ opioid receptor (MOPR); assay: DAMGO-stimulated [35S]GTPγS binding (MOPR activity) in caudate-putamen and nucleus accumbens membranes of drug-treated mice from the CPP assay; type: in vivo; settings: for MOPR activity (DAMGO-stimulated [35S]GTPγS binding) compared to saline: caudate-putamen and nucleus accumbens, 10 μM DAMGO
Protocol: as §1

mice = assay: Locomotor activity measured during the CPP assay; type: in vivo; settings: for MPH-induced increase in locomotor activity: naltrexone 1, 5 or 10 mg/kg 30 min prior to MPH 7.5 mg/kg
Protocol: In control groups, saline or naltrexone at each of the doses was administered alone (without MPH).

healthy human volunteers = settings: studies that evaluated detection/likeability (Kollins et al., 2001); cited from earlier work
[4] = cited from earlier work
Adult C57BL/6 mice = assay: Conditioned place preference (CPP); type: in vivo; settings: for MPH-induced place preference / CPP score compared to the saline group: naltrexone 10 mg/kg (highest dose) prior to MPH 7.5 mg/kg; for place preference (CPP): naltrexone 1 or 10 mg/kg alone; for effect on high dose MPH-induced CPP (rewarding effects): naltrexone prior to MPH, naltrexone dose not stated
Protocol: Photobeams wired to a computer can record animal location (time spent in the chamber). The central chamber has a smooth floor with gray color. Each preference chamber is either white with a mesh floor or black with a bar floor. The CPP procedure included three phases. (1) The pre-conditioning phase was performed on day 1 (two sessions daily, AM and PM). In each preconditioning session, mice were initially placed in the central gray chamber for 2 min and then allowed free access to the white and black chambers for 20 min. The time spent in each chamber was recorded. […] (2) The conditioning phase was carried out on each of days 2 to 6 [two sessions daily, AM and PM one each for vehicle-paired (saline as vehicle) and drug-paired (cocaine or MPH as drugs) sessions]. In the vehicle-paired session mice were injected with saline (i.p.) and placed in the central gray chamber for 2 min (to isolate injection effect to the central chamber) and then confined to the vehicle-paired chamber for 30 min. In the drug-paired session, the mice were given the drug in the central chamber, retained there for 2 min and then confined for 30 min in the drug-paired chamber. […] The time spent in each chamber was recorded. The difference between time spent in the drug-paired chamber during the test phase and pre-conditioning phases was calculated as the CPP score.

[5] = 0.75 mg/kg dose (Balcioglu et al., 2009)
[6] = MPH 7.5 mg/kg vs cocaine 10 mg/kg
[7] = naltrexone 1, 5 or 10 mg/kg prior to MPH 7.5 mg/kg

T1 sequence (P42866 whole entry): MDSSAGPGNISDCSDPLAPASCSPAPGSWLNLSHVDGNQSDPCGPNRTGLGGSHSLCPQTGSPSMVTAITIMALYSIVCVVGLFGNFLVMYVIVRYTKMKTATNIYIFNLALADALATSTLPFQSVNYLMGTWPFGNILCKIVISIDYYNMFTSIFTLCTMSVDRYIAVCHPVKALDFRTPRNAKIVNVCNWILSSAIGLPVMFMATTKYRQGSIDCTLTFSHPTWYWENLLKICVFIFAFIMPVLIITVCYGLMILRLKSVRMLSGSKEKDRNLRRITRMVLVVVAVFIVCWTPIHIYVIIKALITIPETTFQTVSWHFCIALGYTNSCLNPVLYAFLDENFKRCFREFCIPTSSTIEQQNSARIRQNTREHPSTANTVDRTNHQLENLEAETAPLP

Q: For `CC(N)Cc1ccccc1` (stereo not drawn) [Amphetamine], which “KOPR signaling in the nucleus accumbens” value (KOPR) is on record?
A: The value was “modulates KOPR signaling in the nucleus accumbens in a region-specific manner”.

Q: What does the source list for `C[C@@H](NC(=O)[C@@H](N)Cc1ccc(O)cc1)C(=O)NCC(=O)N(C)[C@@H](Cc1ccccc1)C(=O)NCCO` [DAMGO]?
A: concentration at which maximal [35S]GTPγS binding was reached (μ opioid receptor (MOPR) [1]): 10 µM; maximal [35S]GTPγS binding (μ opioid receptor (MOPR) [1]; at 10 μM DAMGO): 1.75 fold of the basal level

Q: For `COC(=O)C(c1ccccc1)C1CCCCN1` (stereo not drawn) [MPH, Methylphenidate], which “accuracy in 5-CSRT assay” value (rats) is on record?
A: The value was “increased accuracy”.

Q: What about the “time after MPH administration at which increases in frontal cortical dopamine levels occur” value [2, 5] of the same compound?
A: The value was roughly 60 min.

Q: And the “effect on neurotransmitter levels” value ([2]; low doses of MPH (literature))?
A: Its value is “selectively affect neurotransmitter levels in the frontal cortex”.

Q: And the MOPR activity (μ opioid receptor (MOPR) [3]; 7.5 mg/kg MPH to 25-day old mice for 5 days, expected)?
A: The MOPR activity was “MOPR upregulation”.

Q: And the “MOPR activity (DAMGO-stimulated [35S]GTPγS binding) compared to saline” value (μ opioid receptor (MOPR) [3]; MPH 0.75 mg/kg i.p.)?
A: Its value is “did not produce significant enhancements”.

Q: What about the “MOPR activity (DAMGO-stimulated [35S]GTPγS binding) compared to saline” value (μ opioid receptor (MOPR) [3]; MPH 7.5 mg/kg i.p.) of the same compound?
A: The value was “significantly greater; also recorded: activate MOPR; also recorded: upregulation of striatal MOPR; also recorded: upregulate MOPR activity; also recorded: significantly higher MOPR activity”.

Q: What about the “MOPR activity, high dose MPH group vs cocaine group” value (μ opioid receptor (MOPR) [3]; [6]) of the same compound?
A: The value was “no significant difference”.

Q: And the “locomotor activity compared to saline” value (mice; MPH 0.75 mg/kg)?
A: Its value is “no significant effect”.

Q: And the “locomotor activity compared to saline” value (mice; MPH 7.5 mg/kg)?
A: The value was “significantly increased locomotor activity; also recorded: increased locomotor activity significantly”.

Q: What about the “studies reporting subjective responses to oral MPH” value (healthy human volunteers) of the same compound?
A: Its value is 18 (72%) of 25 studies.

Q: What about the “serum and brain concentrations of d-methylphenidate” value ([4]; 0.75 mg/kg MPH, adult mice (ref. 19)) of the same compound?
A: Its value is “equivalent to its serum and brain (estimated) concentrations in ADHD patients taking therapeutic doses of MPH”.

Q: And the “clinically relevant serum levels of D-MPH” value [4, 5]?
A: Its value is 6 to 10 ng/mL.

Q: And the “time brain levels remain high” value [4, 5]?
A: Its value is roughly 30 min.

Q: And the “time to reach clinically relevant serum levels of D-MPH” value [4, 5]?
A: The value was no more than 15 min.

Q: And the “place preference: time spent in the drug-paired chamber, test vs pre-conditioning sessions” value (Adult C57BL/6 mice; MPH 0.75 mg/kg (low, therapeutic dose) i.p.)?
A: Its value is “did not; also recorded: neither induce place preference; also recorded: do not; also recorded: no statistically significant difference”.

Q: And the “place preference: time spent in the drug-paired chamber, test vs pre-conditioning sessions” value (Adult C57BL/6 mice; MPH 7.5 mg/kg (high, supra-therapeutic dose) i.p., alone)?
A: Its value is “showed significant place preference; also recorded: induced CPP; also recorded: produce CPP; also recorded: induce place preference; also recorded: produce place preference; also recorded: spent significantly longer period of time in the drug-paired chamber; also recorded: produced significant increase”.

Q: What about the “CPP score compared to the saline and low dose MPH groups” value (Adult C57BL/6 mice; MPH 7.5 mg/kg i.p.) of the same compound?
A: Its value is “significantly higher CPP scores”.

Q: What about the “CPP score, high dose MPH group vs cocaine group” value (Adult C57BL/6 mice; [6]) of the same compound?
A: The value was “no statistically significant difference”.

Q: With `O=C1CC[C@@]2(O)[C@H]3Cc4ccc(O)c5c4[C@@]2(CCN3CC2CC2)[C@H]1O5` [naltrexone] as the compound, how does the “MPH-induced increase in locomotor activity” value (mice) read?
A: The value was “not affected”.

Q: And the “MPH-induced increase in locomotor activity” value (mice; listed as Naltrexone)?
A: Its value is “did not block the MPH-induced increases in locomotor activity”.

Q: And the locomotor activity (mice; naltrexone 1, 5 or 10 mg/kg alone)?
A: Its locomotor activity is “did not affect locomotor activity”.

Q: What about the “naltrexone dose needed to block reinforcing properties of MPH” value (Adult C57BL/6 mice; 7.5 mg/kg MPH, preliminary findings) of the same compound?
A: Its value is “at least 5 mg/kg”.

Q: What about the “MPH-induced place preference / CPP score compared to the saline group” value (Adult C57BL/6 mice) of the same compound?
A: Its value is “not significantly different from that for the saline group”.

Q: And the “MPH-induced place preference / CPP score compared to the saline group” value (Adult C57BL/6 mice; listed as Naltrexone)?
A: Its value is “blocking it completely”.

Q: What about the “time spent in the drug-paired chamber, PC vs Test sessions” value (Adult C57BL/6 mice; naltrexone 1, 5 or 10 mg/kg administered prior to MPH 7.5 mg/kg) of the same compound?
A: The value was “significant difference between PC and Test sessions”.

Q: What about the “CPP score compared to MPH administered alone” value (Adult C57BL/6 mice; [7]) of the same compound?
A: The value was “significantly decreased the CPP score”.

Q: What about the “dose dependence of the decrease in the CPP score” value (Adult C57BL/6 mice; [7]) of the same compound?
A: The value was “dose-dependent”.

Q: What about the “place preference (CPP)” value (Adult C57BL/6 mice) of the same compound?
A: Its value is “did not induce CPP”.

Q: What about the “place preference (CPP)” value (Adult C57BL/6 mice; listed as Naltrexone) of the same compound?
A: The value was “did not affect CPP”.

Q: And the “MPH-induced CPP / CPP score compared to MPH administered alone” value (Adult C57BL/6 mice; naltrexone 5 or 10 mg/kg 30 min prior to MPH 7.5 mg/kg)?
A: Its value is “significantly lower; also recorded: blocks MPH-induced conditioned place preference (CPP)”.

Q: What about the “effect on high dose MPH-induced CPP (rewarding effects)” value (Adult C57BL/6 mice) of the same compound?
A: Its value is “can significantly attenuate rewarding effects of MPH”.

Q: What about the “effect on high dose MPH-induced CPP (rewarding effects)” value (Adult C57BL/6 mice; listed as Naltrexone) of the same compound?
A: Its value is “prevents MPH-induced CPP; also recorded: attenuates high dose MPH-induced place preference”.

Q: For `CCN1CCC[C@H]1CNC(=O)c1c(O)c(Cl)cc(Cl)c1OC` [raclopride], which “CPP score compared to the MPH only group” value (Adult C57BL/6 mice; MPH 7.5 mg/kg + raclopride) is on record?
A: Its value is “did not show significant differences”.

Reference: US11045465B2, “Methods and compositions to prevent addiction” (FLORIDA STATE UNIVERSITY RESEARCH FOUNDATION, INC., priority 2009, dated 2021)
